Measured values from paper PMC3252867, “Marilones A–C, phthalides from the sponge-derived fungus Stachylidium sp” (Beilstein Journal of Organic Chemistry, 2011).
Like-named read-outs stand apart in the source and are kept apart here.

Tests used:
Assay in all cases: cells
Set-up in all cases: antiproliferative activity in human cancer cell lines, growth inhibition corrected for starting population (GI50)
Settings in all cases: Homo sapiens
[1] = tested on: MCF7
[2] = tested on: SF268
[3] = tested on: NCI-H460

**Q.** How did the GI50 ([1]; MCF7, read-out: GI50 (1)) turn out when COc1c(C)c(OC/C=C(\C)CCC=C(C)C)cc2c1C(=O)O[C@H]2C (racemic) [compound 1, Marilone A] was run?
**A.** 28.8 µM

**Q.** And the GI50 ([2]; SF-268, read-out: GI50 (1))?
**A.** 38.4 µM

**Q.** And the GI50 ([3]; NCI-H460, read-out: GI50 (1))?
**A.** 42.9 µM

**Q.** With COc1c(C)c(OC/C=C(\C)CCC=C(C)C)cc2c1COC2=O [compound 3, Marilone C] as the molecule, how does the GI50 ([1]; MCF7, read-out: GI50 (3)) read?
**A.** 20 µM

**Q.** And the GI50 ([2]; SF-268, read-out: GI50 (3))?
**A.** 28.9 µM

**Q.** And the GI50 ([3]; NCI-H460, read-out: GI50 (3))?
**A.** 31 µM

**Q.** Which results are given for COc1cc([C@@H]2c3cc4c(cc3[C@@H](O[C@@H]3O[C@@H]5CO[C@@H](C)O[C@H]5[C@H](O)[C@H]3O)[C@H]3COC(=O)[C@H]23)OCO4)cc(OC)c1O [Etoposide]?
**A.** GI50 ([1]; MCF7, read-out: GI50 Etoposide): 22.8 µM; GI50 ([2]; SF-268, read-out: GI50 Etoposide): 7.7 µM; GI50 ([3]; NCI-H460, read-out: GI50 Etoposide): 0.4 µM
